Assay results published in ChEMBL document CHEMBL5370672, “Discovery of Orally Bioavailable Phthalazinone Analogues as an ENPP1 Inhibitor for STING-Mediated Cancer Immunotherapy” (J Med Chem, 2023).
Activity calls are given as the source filed them. The rule behind the calls is not given here.

How the values were obtained:
[1] = MRT (0 to t) in BALB/c mouse at 20 mg/kg, po measured after 24 hrs by LC-MS/MS analysis; type: ADME, organism-based; conditions: in vivo
Cytochrome P450 2C9 = Cytochrome P450 2C9 (Homo sapiens, UniProt P11712); experiment: Inhibition of CYP2C9 in human liver microsomes; type: ADME, Microsome
Sequence of Cytochrome P450 2C9 (P11712 whole entry): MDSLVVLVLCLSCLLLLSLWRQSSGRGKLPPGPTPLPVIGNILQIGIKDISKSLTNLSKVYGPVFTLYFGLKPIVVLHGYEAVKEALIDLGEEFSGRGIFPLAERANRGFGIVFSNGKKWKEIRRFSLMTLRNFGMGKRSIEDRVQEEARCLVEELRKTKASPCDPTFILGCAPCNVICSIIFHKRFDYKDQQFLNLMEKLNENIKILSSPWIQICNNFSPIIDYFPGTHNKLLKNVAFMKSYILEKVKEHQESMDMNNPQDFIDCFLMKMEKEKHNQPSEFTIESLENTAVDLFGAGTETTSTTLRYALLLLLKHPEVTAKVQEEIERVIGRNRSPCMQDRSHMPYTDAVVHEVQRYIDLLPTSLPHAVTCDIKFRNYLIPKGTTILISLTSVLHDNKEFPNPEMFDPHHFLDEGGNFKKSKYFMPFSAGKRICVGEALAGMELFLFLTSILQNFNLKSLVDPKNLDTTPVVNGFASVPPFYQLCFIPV

Cytochrome P450 2C19 = Cytochrome P450 2C19 (Homo sapiens, UniProt P33261); experiment: Inhibition of CYP2C19 in human liver microsomes; type: ADME, Microsome
Sequence of Cytochrome P450 2C19 (P33261 whole entry): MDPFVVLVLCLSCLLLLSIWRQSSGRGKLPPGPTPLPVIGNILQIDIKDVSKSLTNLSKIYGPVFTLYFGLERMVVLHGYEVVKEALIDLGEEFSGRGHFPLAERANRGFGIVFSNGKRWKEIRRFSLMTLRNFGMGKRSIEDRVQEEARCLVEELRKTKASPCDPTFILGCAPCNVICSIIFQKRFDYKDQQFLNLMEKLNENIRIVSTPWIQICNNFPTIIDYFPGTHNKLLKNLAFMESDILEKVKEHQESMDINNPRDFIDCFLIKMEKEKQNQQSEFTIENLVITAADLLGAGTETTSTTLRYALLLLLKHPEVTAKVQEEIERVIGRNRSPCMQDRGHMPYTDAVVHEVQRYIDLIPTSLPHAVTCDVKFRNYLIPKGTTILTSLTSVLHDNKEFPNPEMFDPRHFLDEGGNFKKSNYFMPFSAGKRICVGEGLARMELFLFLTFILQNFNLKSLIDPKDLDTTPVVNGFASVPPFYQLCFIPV

[2] = Half-life in BALB/c mouse at 5 mg/kg, iv measured after 24 hrs by LC-MS/MS analysis; type: ADME, organism-based; conditions: in vivo
[3] = molecular target: Stimulator of interferon genes protein (Homo sapiens) (UniProt Q86WV6); experiment: Activation of STING-mediated immune response in human HCT-116 cells transfected with ISRE reporter assessed as increase in cGAMP-induced ISRE activation preincubated with compound for 1 hrs followed by cGAMP addition and measured after 48 hrs by luciferase reporter gene assay; type: cell-based; conditions: filed as activator, dose <= 200.0 µM, time 49.0 hrs
Sequence of Stimulator of interferon genes protein (Homo sapiens) (Q86WV6 whole entry): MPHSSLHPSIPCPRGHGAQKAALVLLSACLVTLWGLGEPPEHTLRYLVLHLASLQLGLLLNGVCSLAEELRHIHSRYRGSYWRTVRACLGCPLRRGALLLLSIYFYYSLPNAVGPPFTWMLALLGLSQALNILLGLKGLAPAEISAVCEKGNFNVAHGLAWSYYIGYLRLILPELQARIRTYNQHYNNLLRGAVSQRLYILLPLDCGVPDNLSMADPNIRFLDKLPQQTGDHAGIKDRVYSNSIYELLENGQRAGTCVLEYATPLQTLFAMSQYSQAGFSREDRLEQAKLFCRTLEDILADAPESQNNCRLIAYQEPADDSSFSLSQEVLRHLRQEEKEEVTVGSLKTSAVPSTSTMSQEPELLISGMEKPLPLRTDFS

Cytochrome P450 3A4 = Cytochrome P450 3A4 (Homo sapiens, UniProt P08684); experiment: Inhibition of CYP3A4 in human liver microsomes; type: ADME, Microsome
Sequence of Cytochrome P450 3A4 (P08684 whole entry): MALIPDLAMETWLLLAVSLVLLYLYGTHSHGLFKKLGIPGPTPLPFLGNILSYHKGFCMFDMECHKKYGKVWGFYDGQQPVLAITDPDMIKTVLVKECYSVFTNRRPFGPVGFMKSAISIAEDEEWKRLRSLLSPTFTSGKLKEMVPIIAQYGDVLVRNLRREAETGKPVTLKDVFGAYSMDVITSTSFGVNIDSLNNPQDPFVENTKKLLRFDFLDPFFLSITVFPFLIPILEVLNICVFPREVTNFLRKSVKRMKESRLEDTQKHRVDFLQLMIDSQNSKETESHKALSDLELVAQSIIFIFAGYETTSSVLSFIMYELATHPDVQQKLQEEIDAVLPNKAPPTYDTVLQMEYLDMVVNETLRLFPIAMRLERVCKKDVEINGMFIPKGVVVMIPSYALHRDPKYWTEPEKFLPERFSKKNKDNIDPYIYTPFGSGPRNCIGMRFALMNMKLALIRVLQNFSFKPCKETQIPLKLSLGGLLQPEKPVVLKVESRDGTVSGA

[4] = Oral bioavailability in BALB/c mouse at 20 mg/kg measured after 24 hrs by LC-MS/MS analysis; type: ADME, organism-based; conditions: in vivo
[5] = MRT (0 to infinity) in BALB/c mouse at 20 mg/kg, po measured after 24 hrs by LC-MS/MS analysis; type: ADME, organism-based; conditions: in vivo
[6] = Metabolic stability in human liver microsome assessed as half-life by LC/MS analysis; type: ADME; conditions: liver microsomes
[7] = MRT (0 to t) in BALB/c mouse at 5 mg/kg, iv measured after 24 hrs by LC-MS/MS analysis; type: ADME, organism-based; conditions: in vivo
[8] = Volume of distribution at steady state in BALB/c mouse at 5 mg/kg, iv measured after 24 hrs by LC-MS/MS analysis; type: ADME, organism-based; conditions: in vivo, read-out: Vdss
[9] = MRT (0 to infinity) in BALB/c mouse at 5 mg/kg, iv measured after 24 hrs by LC-MS/MS analysis; type: ADME, organism-based; conditions: in vivo
CT26 [10] = experiment: Antitumor activity against mouse CT26 cells implanted in BALB/c mouse assessed as tumor growth inhibition at 200 mg/kg, po administered for 2 weeks and measured on day 15 in the presence of anti-PD-L1 antibody relative to control; type: functional; conditions: CT26, 360 h, time 15 day, read-out: TGI
[11] = AUC (0 to t) in BALB/c mouse at 5 mg/kg, iv measured after 24 hrs by LC-MS/MS analysis; type: ADME, organism-based; parameters: dose 5 mg/kg, time 24 hrs, route iv; conditions: in vivo
[12] = Toxicity in BALB/c mouse implanted with mouse CT26 cells assessed as effect on body weight at 200 mg/kg, po preadministered with compound for 2 weeks followed by reinoculation of CT26 cells and measured on day 19; type: organism-based; conditions: in vivo, 456 h, time 19 day
CT26 [13] = experiment: Antitumor activity against mouse CT26 cells implanted in BALB/c mouse assessed as tumor growth inhibition at 200 mg/kg, po administered for 2 weeks and measured on day 15 relative to control; type: functional; conditions: CT26, 360 h, time 15 day, read-out: TGI
[14] = Cmax in BALB/c mouse at 20 mg/kg, po measured after 24 hrs by LC-MS/MS analysis; type: ADME, organism-based; parameters: dose 20 mg/kg, time 24 hrs, route po; conditions: in vivo
[15] = Metabolic stability in mouse liver microsome assessed as half-life by LC/MS analysis; type: ADME; conditions: liver microsomes
[16] = Metabolic stability in human liver microsome assessed as intrinsic clearance by LC/MS analysis; type: ADME; conditions: liver microsomes, read-out: CLH
[17] = Protein binding in mouse plasma assessed as unbound fraction by equilibrium dialysis based LC-MS/MS analysis; type: ADME, cell-free
[18] = Protein binding in human plasma assessed as unbound fraction by equilibrium dialysis based LC-MS/MS analysis; type: ADME, cell-free
[19] = Metabolic stability in mouse liver microsome assessed as parent compound remaining measured after 30 mins by LC/MS analysis; type: ADME; conditions: liver microsomes, read-out: Stability
[20] = molecular target: Stimulator of interferon genes protein (Homo sapiens) (UniProt Q86WV6); experiment: Activation of STING-mediated immune response in human HCT-116 cells transfected with ISRE reporter assessed as increase in cGAMP-induced ISRE activation by measuring fold change at 25 to 100 uM preincubated with compound for 1 hrs followed by cGAMP addition and measured after 48 hrs by luciferase reporter gene assay; type: cell-based; conditions: filed as activator, dose 25-100 µM, time 49.0 hrs
[21] = molecular target: Stimulator of interferon genes protein (Homo sapiens) (UniProt Q86WV6); experiment: Activation of STING-mediated immune response in human HCT-116 cells transfected with ISRE reporter assessed as increase in cGAMP-induced ISRE activation at 25 to 100 uM preincubated with compound for 1 hrs followed by cGAMP addition and measured after 48 hrs by luciferase reporter gene assay; type: cell-based; conditions: filed as activator, dose 25-100 µM, time 49.0 hrs
[22] = Half-life in BALB/c mouse at 20 mg/kg, po measured after 24 hrs by LC-MS/MS analysis; type: ADME, organism-based; conditions: in vivo
Cytochrome P450 2D6 = Cytochrome P450 2D6 (Homo sapiens, UniProt P10635); experiment: Inhibition of CYP2D6 in human liver microsomes; type: ADME, Microsome
Sequence of Cytochrome P450 2D6 (P10635 whole entry): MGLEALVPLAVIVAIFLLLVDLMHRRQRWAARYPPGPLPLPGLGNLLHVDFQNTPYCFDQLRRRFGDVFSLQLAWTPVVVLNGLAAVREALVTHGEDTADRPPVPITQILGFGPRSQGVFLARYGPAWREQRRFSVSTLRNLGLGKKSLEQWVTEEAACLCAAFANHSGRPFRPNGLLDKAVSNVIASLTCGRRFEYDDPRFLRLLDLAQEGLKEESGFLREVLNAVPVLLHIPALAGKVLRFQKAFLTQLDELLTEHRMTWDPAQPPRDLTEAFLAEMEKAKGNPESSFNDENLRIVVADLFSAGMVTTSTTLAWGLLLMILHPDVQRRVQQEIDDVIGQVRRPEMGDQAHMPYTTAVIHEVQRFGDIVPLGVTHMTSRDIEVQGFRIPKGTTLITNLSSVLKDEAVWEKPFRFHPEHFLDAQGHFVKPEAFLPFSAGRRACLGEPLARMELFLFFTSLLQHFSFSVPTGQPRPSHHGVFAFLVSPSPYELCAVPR

[23] = Toxicity in BALB/c mouse implanted with mouse CT26 cells assessed as effect on body weight at 200 mg/kg, po administered for 2 weeks and measured on day 15 in the presence of anti-PD-L1 antibody; type: organism-based; conditions: in vivo, 360 h, time 15 day

## Cn1nc(Cc2ccc(NS(N)(=O)=O)cc2)c2ccccc2c1=O
[1]
  MRT last at 24 h: 3.75 h
Cytochrome P450 2C9
  IC50: > 10 µM
Cytochrome P450 2C19
  IC50: > 10 µM
[2]
  half-life: 217 min
[3]
  Activity: Dose-Dependent Effect
Cytochrome P450 3A4
  IC50: > 10 µM
[4]
  bioavailability: 65.4%
[5]
  MRT inf: 3.81 h
[6]
  half-life: > 120 min
[7]
  MRT last at 24 h: 2.83 h
[8]
  Vd: 0.51 L/kg
[9]
  MRT inf: 3.21 h
CT26 [10]
  inhibition in vivo at 200 mg/kg: 69%
[11]
  AUC(0-t) at 24 h: 30400 ng·h/mL
[12]
  Activity: Non-Toxic
CT26 [13]
  inhibition in vivo at 200 mg/kg: 55%
[14]
  Cmax: 12700 ng/mL
[15]
  half-life: 59.2 min
[16]
  CLint scaled: < 14.5 mL/min/kg
[17]
  fraction unbound: 0.09
[18]
  fraction unbound: 0.18
[19]
  remaining at 0.5 h: 65%
[20]
  fold change (FC): 3.63
[21]
  Activity: Active
[22]
  half-life: 168 min
Cytochrome P450 2D6
  IC50: > 10 µM
[23]
  Activity: Non-Toxic
